This note sets out measurements from PubChem BioAssay AID463199 (Broad Institute, 2010).

The structures appear in SMILES notation. Active and inactive are the calls of the source.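 How the source made its calls: active means AC50, the dose giving half-maximal effect, exceeds a fixed cutoff for a compound that rescues yeast growth under heat; inactive means the rest, inconclusive results apart.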

The test has as its system S. cerevisiae Burl-1 ts mutant growth, BacTiter-Glo, 38.5C 24 h. Put plainly: growth induction of Burl-1 ts yeast mutant, dose response, counter-screen for SUMOylation pathway inhibitor project, whole organism, S. cerevisiae, luminescence (AID 463199). (Counterscreens check selectivity or assay interference.)

With `Cc1cc(C)cc(C(=O)N2CCC3(CC2)NCCc2[nH]cnc23)c1`, the AC50 was > 42 µM (inactive).

`Cc1ccc(C(=O)NNc2ncnc3c2cnn3C)cc1`: the AC50 was > 42 µM (inactive).

Take `c1ccc2cc(C3CCCCC3)ncc2c1`: the AC50 was > 42 µM (inactive).

Take `O=C(COc1ccc(Cl)cc1)NCCCNC(=O)c1ccccn1`: the AC50 was > 42 µM (inactive).

As to `CCN1C(=S)N[C@@H](CCc2ccccc2)C(C(=O)OC)=C1C`, the AC50 was > 42 µM (inactive).

`O=S(=O)(Cc1cc(-c2ccccc2)no1)c1ccccc1`: the AC50 is > 42 µM (inactive).

With `NS(=O)(=O)c1cccc(NC(=O)CSc2nnnn2-c2ccccc2)c1`, the AC50 was > 42 µM (inactive).

With `COc1ccccc1CNc1ncnc2c1nnn2Cc1ccccc1`, the AC50 is > 42 µM (inactive).

As for `O=C(CN1c2ccccc2Sc2ccccc21)N/N=C/c1ccc(Cl)cc1Cl`, the AC50 is > 21 µM (inactive).

As to `COCCNC(=O)C(c1ccc(C)cc1)N(C(=O)CCC(=O)Nc1ccccn1)c1cccc(C)c1` (stereo unspecified), the AC50 was > 42 µM (inactive).

`C=CSc1sc(Cl)c(N(C)C)c1[N+](=O)[O-]`: the AC50 was > 42 µM (inactive).

Consider `Cc1cc(C(F)(F)F)c(C#N)c(=O)[nH]1`, for which the AC50 is > 42 µM (inactive).

With `CCOc1cc(C(N)=O)cc(Cl)c1OCc1ccccc1`, the AC50 was > 42 µM (inactive).

`O=C(NCc1ccccc1)c1cccc(COc2ccc(Cl)cc2)c1`: the AC50 was > 42 µM (inactive).

For `O=C(O)C1CCCCC1C(=O)Nc1ccc(S(=O)(=O)N2CCCC2)cc1` (stereo unspecified), the AC50 is > 42 µM (inactive).

Regarding `c1ccc(-c2cc3ccccc3cn2)cc1`, the AC50 was > 42 µM (inactive).

As to `CC(SC#N)C(=O)C12CC3CC(CC(C3)C1)C2` (stereo unspecified), the AC50 was > 42 µM (inactive).

As for `O=C(Nc1cccc(O)c1)C(Cc1ccccc1)N1C(=O)c2cccc3cccc(c23)C1=O` (stereo unspecified), the AC50 was > 42 µM (inactive).

Turning to `COc1ccc(C(=O)N(CCc2ccccc2)Cc2ccccc2)c(OC)n1`, the AC50 is > 42 µM (inactive).

On to `COc1cc(C(=O)OCC(=O)NCc2ccccc2)cc(NC(=O)c2ccco2)c1OC`, for which the AC50 was > 42 µM (inactive).

Take `O=C(OCCCCOC(=O)c1ccccc1)c1ccccc1`: the AC50 was > 42 µM (inactive).

As for `O=c1[nH]c(O)c(N=Nc2cc([N+](=O)[O-])ccc2O)c(=O)[nH]1`, the AC50 was > 42 µM (inactive).

In the case of `COc1ccc(OCCC(=O)c2ccc(OC)cc2)cc1`, the AC50 was > 42 µM (inactive).

With `CCOP(=O)(OCC)C(NC(=O)c1cccc(C)c1)C(Cl)(Cl)Cl` (stereo unspecified), the AC50 was > 42 µM (inactive).

For the compound `O=C(c1ccc(COc2ccccc2Cl)o1)N1N=C(C(F)F)CC1(O)C(F)F` (stereo unspecified), the AC50 is > 42 µM (inactive).

`O=C(CN1CCN(Cc2ccc(F)cc2)CC1)NCc1ccccc1`: the AC50 was > 42 µM (inactive).

For `CC(C)C(=O)Nc1ccc(-c2nc3cccnc3o2)cc1`, the AC50 is > 42 µM (inactive).

As for `CCC(C)[C@H](N)c1nnc(SCC(=O)Nc2cccc(Cl)c2)o1` (stereo partly specified), the AC50 was > 42 µM (inactive).

Regarding `O=C(NNC(=O)c1ccc(-n2cncn2)c([N+](=O)[O-])c1)c1ccc(Cl)cc1`, the AC50 is > 42 µM (inactive).

As to `COCCNCc1ccccc1`, the AC50 was > 42 µM (inactive).

As to `COc1ccccc1NC(=O)NCCc1c[nH]c2ccccc12`, the AC50 was > 42 µM (inactive).

On to `C/C(=N\NC(=S)Nc1ccccc1)C1Cc2ccccc2C(=O)O1` (stereo unspecified), for which the AC50 was > 42 µM (inactive).

As to `CC1CCN(C(=O)c2[nH]cnc2C(=O)NCC(=O)OCc2ccccc2)CC1`, the AC50 is > 42 µM (inactive).

Regarding `Oc1ccccc1-c1cc(C(F)(F)C(F)F)[nH]n1`, the AC50 is > 42 µM (inactive).

Turning to `CN(C)c1ccc(C(CNS(=O)(=O)c2ccc([N+](=O)[O-])cc2)N2CCOCC2)cc1` (stereo unspecified), the AC50 is > 42 µM (inactive).

As for `Cc1ccc(C)c(S(=O)(=O)n2cnc3ccccc32)c1`, the AC50 was > 42 µM (inactive).

In general, AC50 refers to the midpoint of the concentration-response curve, whichever way the signal moves.
